Measured values reported in ChEMBL document CHEMBL4483862, “Open-source discovery of chemical leads for next-generation chemoprotective antimalarials” (2018).

Test system: Plasmodium berghei
Assay: Luciferase/luciferin-expressing antifolate-resistant parasites were used to infect a culture of HepG2 cells that were pre-incubated with compounds. Infected hepatocytes emit light due to the luciferase reaction. Assay results are presented as the percent inhibition of light emission compared to control. […]
Type: functional
Details: sporozoite; for IC90: read-out: LUCIFERASE INFECTION ASSAY - IC90
[1] = read-out: LUCIFERASE INFECTION ASSAY - IC50

Row | SMILES | IC90 [µM] | other results
1 | C/C(=N\NC(=S)NC(C)(C)C)c1cc(F)cc(F)c1O | 10.5 | IC50 (HEPG2TOX_HILL_SLOPE 8.26, HEPG2TOX_R_SQUARED 0.458, PBLUC_HILL_SLOPE 21.3, PBLUC_R_SQUARED 0.177, read-out: LUCIFERASE INFECTION ASSAY - IC50): 9.5 µM
2 | CC(C)CCCC(C)C1CCC2(C)C3=C(CCC12C)C1(C)CCC(=O)C(C)(C)C1CC3 (stereo unspecified) | 6.57 | IC50 (HEPG2TOX_HILL_SLOPE 3.93, HEPG2TOX_R_SQUARED 0.974, PBLUC_HILL_SLOPE 2.18, PBLUC_R_SQUARED 0.307, read-out: LUCIFERASE INFECTION ASSAY - IC50): 2.4 µM
3 | COc1ccccc1NC(=O)C(=Cc1ccc(N2CCCC2)c([N+](=O)[O-])c1)C(=O)Nc1ccccc1OC | > 10 | IC50 [1]: > 10 µM
4 | CC(=O)N1CCc2cc(NC(=O)C3CCN(c4ccc(C#N)cn4)CC3)ccc21 | > 10 | IC50 (PBLUC_HILL_SLOPE 2.56, PBLUC_R_SQUARED 0.25, read-out: LUCIFERASE INFECTION ASSAY - IC50): > 10 µM
5 | CC(C)N1CCC(NC(=O)c2ccc(COc3ccc4ccccc4c3)o2)CC1 | 9.06 | IC50 (PBLUC_HILL_SLOPE 1.64, PBLUC_R_SQUARED 0.625, read-out: LUCIFERASE INFECTION ASSAY - IC50): 2.37 µM
6 | O=C(Nc1ccc(N2CCCCC2)c(C(F)(F)F)c1)c1ccc(-n2nncc2-c2ccc(Cl)cc2)cc1 | > 10 | IC50 (PBLUC_HILL_SLOPE 1.22, PBLUC_R_SQUARED 0.481, read-out: LUCIFERASE INFECTION ASSAY - IC50): 4.69 µM
7 | CN(C)c1ccccc1-c1cnc2sc(NCCc3ccncc3)nn12 | > 9.05 | IC50 (HEPG2TOX_HILL_SLOPE 0.921, HEPG2TOX_R_SQUARED 0.497, read-out: LUCIFERASE INFECTION ASSAY - IC50): > 9.05 µM
8 | c1ccc(-c2cc3nc(NCC4CC4)nc(NCC4CCCCC4)c3s2)cc1 | 3.98 | IC50 (HEPG2TOX_HILL_SLOPE 9.69, HEPG2TOX_R_SQUARED 0.573, PBLUC_HILL_SLOPE 14.3, PBLUC_R_SQUARED 0.374, read-out: LUCIFERASE INFECTION ASSAY - IC50): 3.41 µM
9 | N#C/C(=C\c1cc(Cl)cc(Cl)c1O)c1ccc([N+](=O)[O-])cc1 | 6.14 | IC50 (PBLUC_HILL_SLOPE 3.19, PBLUC_R_SQUARED 0.599, read-out: LUCIFERASE INFECTION ASSAY - IC50): 3.08 µM
10 | N#C/C(=C\Nc1cc(C(F)(F)F)cc(C(F)(F)F)c1)S(=O)(=O)c1ccc(OC(F)(F)F)cc1 | > 6.54 | IC50 (PBLUC_HILL_SLOPE 4.15, PBLUC_R_SQUARED 0.029, read-out: LUCIFERASE INFECTION ASSAY - IC50): > 6.54 µM
11 | O=C(NNC(=O)c1cc2c(s1)CCC2)c1csc(COc2ccc(F)cc2)n1 | 8.59 | IC50 (PBLUC_HILL_SLOPE 2.84, PBLUC_R_SQUARED 0.402, read-out: LUCIFERASE INFECTION ASSAY - IC50): 3.96 µM
12 | Cc1ccc2nc(NC(=O)c3ccc(C#N)cc3)c(C(=O)NC3CCCC3)n2c1 | 0.336 | IC50 (FFLUC_HILL_SLOPE 93.7, FFLUC_R_SQUARED 0.282, HEPG2TOX_HILL_SLOPE 0.845, HEPG2TOX_R_SQUARED 0.968, PBLUC_HILL_SLOPE 14.4, PBLUC_R_SQUARED 0.874, read-out: LUCIFERASE INFECTION ASSAY - IC50): 0.288 µM
13 | COc1cccc(-c2ccc3ncc(-c4ccc(NC(C)=O)cc4)n3n2)c1 | 3.39 | IC50 (HEPG2TOX_HILL_SLOPE 0.992, HEPG2TOX_R_SQUARED 0.946, PBLUC_HILL_SLOPE 0.779, PBLUC_R_SQUARED 0.716, read-out: LUCIFERASE INFECTION ASSAY - IC50): 0.202 µM
14 | COc1ccc(NCc2csc(-c3ccccc3)n2)cc1Cl | > 10 | IC50 [1]: > 10 µM
15 | COC(=O)c1c(NC(=O)CSc2nnc(-c3ccccc3Cl)n2C2CCCC2)sc(C)c1C | > 10 | IC50 (PBLUC_HILL_SLOPE 0.364, PBLUC_R_SQUARED 0.4, read-out: LUCIFERASE INFECTION ASSAY - IC50): > 10 µM
16 | COC(=O)c1cnc(Sc2n[nH]c(=O)n2-c2ccc(Cl)cc2)c([N+](=O)[O-])c1 | > 8.09 | IC50 [1]: > 8.09 µM
17 | Cc1cccc(Nc2ccccc2C(=O)Oc2ccc(Cl)cc2Cc2ccccc2)c1C | > 10 | IC50 (HEPG2TOX_HILL_SLOPE 0.105, HEPG2TOX_R_SQUARED 0.052, read-out: LUCIFERASE INFECTION ASSAY - IC50): > 10 µM
18 | COc1ccc(O)c(/C=N/NC(=O)c2ccc(CSc3nc(C)cc(C)n3)cc2)c1 | 4.88 | IC50 (FFLUC_HILL_SLOPE 9.54, FFLUC_R_SQUARED 0.0205, HEPG2TOX_HILL_SLOPE 2.18, HEPG2TOX_R_SQUARED 0.934, PBLUC_HILL_SLOPE 9.18, PBLUC_R_SQUARED 0.547, read-out: LUCIFERASE INFECTION ASSAY - IC50): 3.84 µM
19 | CCOC(=O)c1c(NC(=O)Cn2ncc(Cl)c(Cl)c2=O)sc2c1CCC(C)C2 (stereo unspecified) | > 10 | IC50 [1]: > 10 µM

Row | SMILES | IC90 [µM] | other results
20 | O=C(c1cnc(Nc2cccc(C(F)(F)F)c2)[nH]1)c1ccccc1F | > 9.45 | IC50 (PBLUC_HILL_SLOPE 15.7, PBLUC_R_SQUARED 0.709, read-out: LUCIFERASE INFECTION ASSAY - IC50): 9.07 µM
21 | Cc1cccc(-c2noc(CNC(=O)Cc3ccc(-c4ccccc4)cc3)n2)c1 | 3.18 | IC50 (FFLUC_HILL_SLOPE 13.2, FFLUC_R_SQUARED 0.46, HEPG2TOX_HILL_SLOPE 2.91, HEPG2TOX_R_SQUARED 0.962, PBLUC_HILL_SLOPE 21.5, PBLUC_R_SQUARED 0.134, read-out: LUCIFERASE INFECTION ASSAY - IC50): 2.87 µM
22 | N#Cc1ccc(/C=C(\c2nc3ccccc3[nH]2)c2nc3ccccc3s2)cc1 | 1.53 | IC50 (FFLUC_HILL_SLOPE 15, FFLUC_R_SQUARED 0.447, HEPG2TOX_HILL_SLOPE 15.3, HEPG2TOX_R_SQUARED 0.806, PBLUC_HILL_SLOPE 8.27, PBLUC_R_SQUARED 0.505, read-out: LUCIFERASE INFECTION ASSAY - IC50): 1.17 µM
23 | c1cc2[nH]c(-c3ccsc3)cc2c(Nc2ccc(N3CCOCC3)cc2)n1 | > 10 | IC50 (PBLUC_HILL_SLOPE 2.04, PBLUC_R_SQUARED 0.351, read-out: LUCIFERASE INFECTION ASSAY - IC50): 6.37 µM
24 | O=C(Nc1nc2ccccn2c1C(=O)NC1CCCC1)c1cccc(Cl)c1F | 1.24 | IC50 (HEPG2TOX_HILL_SLOPE 0.754, HEPG2TOX_R_SQUARED 0.896, PBLUC_HILL_SLOPE 3.54, PBLUC_R_SQUARED 0.569, read-out: LUCIFERASE INFECTION ASSAY - IC50): 0.669 µM
25 | Cc1ccc(O)c(C(=O)NCCc2ccc3c(c2)OCCO3)c1 | 7.45 | IC50 (HEPG2TOX_HILL_SLOPE 15.5, HEPG2TOX_R_SQUARED 0.566, PBLUC_HILL_SLOPE 1.92, PBLUC_R_SQUARED 0.779, read-out: LUCIFERASE INFECTION ASSAY - IC50): 2.37 µM
26 | CCN1C(=O)N(Cc2cccc(OC)c2)C(=O)C12CCN(C(C)CCc1c[nH]c3ccccc13)CC2 (stereo unspecified) | 5.56 | IC50 (HEPG2TOX_HILL_SLOPE 4.28, HEPG2TOX_R_SQUARED 0.784, PBLUC_HILL_SLOPE 3.57, PBLUC_R_SQUARED 0.572, read-out: LUCIFERASE INFECTION ASSAY - IC50): 3 µM
27 | COc1ccc(C(=O)CSC2=NCCCC2)cc1 | > 9.59 | IC50 [1]: > 9.59 µM
28 | O=C(/C=C/c1cccnc1)c1ccc(S(=O)(=O)NCc2ccccc2Cl)cc1 | 5.93 | IC50 (FFLUC_HILL_SLOPE 11, FFLUC_R_SQUARED 0.373, HEPG2TOX_HILL_SLOPE 8.76, HEPG2TOX_R_SQUARED 0.66, PBLUC_HILL_SLOPE 5.1, PBLUC_R_SQUARED 0.695, read-out: LUCIFERASE INFECTION ASSAY - IC50): 3.85 µM
29 | COc1cccc(CN(C)c2ncnc3sc(C)c(C)c23)c1OC | 3.84 | IC50 (HEPG2TOX_HILL_SLOPE 2.36, HEPG2TOX_R_SQUARED 0.798, PBLUC_HILL_SLOPE 15.6, PBLUC_R_SQUARED 0.417, read-out: LUCIFERASE INFECTION ASSAY - IC50): 3.34 µM
30 | COc1cccc(/C=C/C(=O)Oc2c(Cl)cc(Cl)c3ccc(C)nc23)c1OC | 9.03 | IC50 (PBLUC_HILL_SLOPE 3.32, PBLUC_R_SQUARED 0.808, read-out: LUCIFERASE INFECTION ASSAY - IC50): 4.66 µM
31 | c1csc(-c2cnc3ccc(-c4cccc5ncccc45)nn23)c1 | 5.26 | IC50 (HEPG2TOX_HILL_SLOPE 3.19, HEPG2TOX_R_SQUARED 0.792, PBLUC_HILL_SLOPE 2.95, PBLUC_R_SQUARED 0.78, read-out: LUCIFERASE INFECTION ASSAY - IC50): 2.49 µM
32 | CCCn1c(CCC(=O)OCC(=O)c2ccc(NC(=O)CC(C)C)cc2)nc2cc(S(=O)(=O)N3CCCC3)ccc21 | > 10 | IC50 [1]: > 10 µM
33 | O=C(COc1ccccc1C(=O)N/N=C/c1ccccc1O)Nc1ccc(SC(F)F)cc1 | 1.53 | IC50 (HEPG2TOX_HILL_SLOPE 0.754, HEPG2TOX_R_SQUARED 0.891, PBLUC_HILL_SLOPE 11.1, PBLUC_R_SQUARED 0.496, read-out: LUCIFERASE INFECTION ASSAY - IC50): 1.26 µM
34 | Cc1ccc(Nc2nc(N)nc(CN(C)Cc3nc(=O)c4ccccc4[nH]3)n2)cc1 | 8.22 | IC50 (PBLUC_HILL_SLOPE 2.75, PBLUC_R_SQUARED 0.503, read-out: LUCIFERASE INFECTION ASSAY - IC50): 3.7 µM
35 | COc1ccc(NS(=O)(=O)c2ccc3oc(SC(C)C(=O)N4CCNC4=O)nc3c2)cc1 (stereo unspecified) | > 10 | IC50 [1]: > 10 µM
36 | CCOc1ccc(/C=C(/C(=O)NCc2ccc(F)cc2)c2nc3ccccc3[nH]2)cc1 | 5.81 | IC50 (PBLUC_HILL_SLOPE 89.9, PBLUC_R_SQUARED 0.419, read-out: LUCIFERASE INFECTION ASSAY - IC50): 5.67 µM
37 | N#CC(C#N)C=Nc1cc(C(F)(F)F)ccc1N1CCCC1 | > 10.8 | IC50 [1]: > 10.8 µM
38 | O=C(NC1CC1)c1csc(C(O)c2cccc(Cl)c2)n1 (stereo unspecified) | > 10 | IC50 [1]: 3.36 µM
